# Test results taken from patent publication US9340493B2, “Hydroxamic acid derivatives useful as antibacterial agents” (Pfizer Inc., priority 2008, dated 2016).
# Assays:
# [1] = target: T1, Pseudomonas aeruginosa LpxC enzyme (Pseudomonas aeruginosa, UniProt P47205); assay: IC50 assay, LpxC enzyme from P. aeruginosa; assay type: biochemical; conditions: 0.5 nM enzyme, 25° C., pH 8.0, 20 min; ** = average of 2-8 assays
# T1 construct: made in house; host or cells: E. coli
# T1 sequence (P47205 1-303): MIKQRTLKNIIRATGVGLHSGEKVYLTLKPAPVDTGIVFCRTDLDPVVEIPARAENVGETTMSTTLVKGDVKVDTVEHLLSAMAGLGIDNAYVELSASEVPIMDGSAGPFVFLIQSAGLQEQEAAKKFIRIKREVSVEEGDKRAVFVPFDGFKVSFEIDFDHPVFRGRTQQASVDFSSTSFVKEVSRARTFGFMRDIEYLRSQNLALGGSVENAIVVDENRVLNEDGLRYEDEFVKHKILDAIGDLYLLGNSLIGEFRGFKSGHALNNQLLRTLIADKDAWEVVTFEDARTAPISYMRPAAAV
# Experimental: IC50 assay, LpxC enzyme from P. aeruginosa: IC50 determination in the LpxC enzyme assay was carried out in a similar manner to that described by S. A. Hyland et al., J. Bacteriology 1997, 179, 2029-2037. [See also T. Kline et al., J. Medicinal Chemistry 2002, 45, 3112-3129.] Briefly, Pseudomonas aeruginosa LpxC enzyme (0.5 nM) purified from E. coli-overexpressing bacteria was incubated at 25° C. in a final volume of 25 ul containing 0.5 uM UDP-3-O—(R-3-hydroxydecanoyl)-N—[^3H-acetyl]glucosamine (B. D. Maxwell and J. C. Bronstein, J. Labeled Compounds and Radiopharmaceuticals 2005, 48, 1049-1054), 1 mg/ml BSA, and 50 mM sodium phosphate buffer, pH 8.0 in the presence and absence of inhibitor compound. At the end of 20 min, 90 ul of a pre-mixed 3% suspension of activated charcoal in 100 mM sodium acetate, pH 7.5, was added to stop the enzyme reaction. The contents of the well were transferred to a filter plate and filtered, and an aliquot of the filtrate was quantitated by liquid scintillation spectrometry. A no-enzyme control was subtracted in order to eliminate background counts.
# P. aeruginosa PAO280 = assay: MIC determination, P. aeruginosa PAO280; assay type: cell-based; conditions: Pseudomonas aeruginosa, PAO280, read-out: MIC (ug/mL) P. aeruginosa PAO280
# Experimental: (§1) MIC determinations: The in vitro antibacterial activity of compounds described in the Examples was evaluated by minimum inhibitory concentration (MIC) testing according to Clinical and Laboratory Standards Institute (CLSI, formerly NCCLS) guidelines. See: Clinical and Laboratory Standards Institute. Methods for Dilution Antimicrobial Susceptibility Tests for Bacteria that Grow Aerobically; Approved Standard-Seventh Edition. CLSI document M7-A7 [ISBN 1-56238-587-9]. Clinical and Laboratory Standards Institute, 940 West Valley Road, Suite 1400, Wayne, Pa. 19087-1898 USA, 2006; also Clinical and Laboratory Standards Institute. Performance Standards for Antimicrobial Susceptibility Testing; Eighteenth Informational Supplement. CLSI document M100-S18 [ISBN1-56238-653-0]. Clinical and Laboratory Standards Institute.
# (§2) The following bacterial strains were used:
# Pseudomonas aeruginosa PA0280: lacks efflux pumps MexAB-oprM, MexXY and MexZ
# P. aeruginosa UI-18 = assay: MIC determination, P. aeruginosa UI-18; assay type: cell-based; conditions: Pseudomonas aeruginosa, UI18; wild-type; * = arithmetic mean of 2-6 MIC determinations; read-out: MIC (ug/mL) P. aeruginosa UI-18
# Experimental: as §1, §2
# P. aeruginosa UI-18: Wild-type;
# [2] = test system: Staphylococcus aureus ATCC 29213; assay: MIC determination, S. aureus ATCC 29213; assay type: cell-based; conditions: ATCC29213, CLSI quality control reference strain, * = arithmetic mean of 2-6 MIC determinations, read-out: MIC (ug/mL) S. aureus ATCC 29213
# Experimental: as §1, §2
# Staphylococcus aureus ATCC 29213: CLSI quality control reference strain; and […]
# [3] = test system: Acinetobacter baumanii/haemolyticus; assay: MIC determination, A. baumanii/haemolyticus; assay type: cell-based; conditions: Acinetobacter baumannii; multidrug-resistant clinical isolate; * = arithmetic mean of 2-6 MIC determinations; read-out: MIC (ug/mL) A. baumanii/haemolyticus
# Experimental: as §1, §2
# Acinetobacter baumanii/haemolyticus: Multidrug-resistant clinical isolate;
# Enterobacter aerogenes = assay: MIC determination, E. aerogenes; assay type: cell-based; conditions: Klebsiella aerogenes; quinolone-resistant, ESBL-expressing clinical isolate; * = arithmetic mean of 2-6 MIC determinations; read-out: MIC (ug/mL) E. aerogenes
# Experimental: as §1, §2
# Enterobacter aerogenes: Quinolone-resistant isolate, expresses extended-spectrum beta-lactamases (ESBL), clinical isolate;
# Escherichia coli EC-1 = assay: MIC determination, E. coli EC-1; assay type: cell-based; conditions: EC1, EC-1: VOGEL, * = arithmetic mean of 2-6 MIC determinations, read-out: MIC (ug/mL) E. coli EC-1
# Experimental: as §1, §2
# Escherichia coli EC-1: VOGEL;
# Klebsiella pneumoniae = assay: MIC determination, K. pneumoniae; assay type: cell-based; conditions: ciprofloxacin-resistant, ESBL-expressing clinical isolate, * = arithmetic mean of 2-6 MIC determinations, read-out: MIC (ug/mL) K. pneumoniae
# Experimental: as §1, §2
# Klebsiella pneumoniae: Ciprofloxacin-resistant isolate, expresses extended-spectrum beta-lactamases (ESBL), clinical isolate;
SMILES,IC50 [1],MIC (P. aeruginosa PAO280),MIC (P. aeruginosa UI-18),MIC [2],MIC [3],MIC (Enterobacter aerogenes),MIC (Escherichia coli EC-1),MIC (Klebsiella pneumoniae)
"C[C@@](OCc1ccc(-c2ccccc2)cc1)(C(=O)NO)[C@@H](O)c1cc(COP(=O)(O)O)on1 [Example 47, trisodium {3-[(1S,2S)-2-(biphenyl-4-ylmethoxy)-1-hydroxy-2-methyl-3-(oxidoamino)-3-oxopropyl]isoxazol-5-yl}methyl phosphate]",0.00565 µM,,,,,,,
"CC(CO)(OCc1ccc(-c2ccc(-c3csnn3)cc2)cc1)C(=O)NO (centres unmarked) [Example 59, N,3-dihydroxy-2-methyl-2-{[4′-(1,2,3-thiadiazol-4-yl)biphenyl-4-yl]methoxy}propanamide]",0.00402 µM,1 µg/mL,> 64 µg/mL,> 64 µg/mL,,,,
"CC(CO)(OCc1ccc(-c2ccc(C3=NNC(=O)CC3)cc2)cc1)C(=O)NO (centres unmarked) [Example 60, N,3-dihydroxy-2-methyl-2-{[4′-(6-oxo-1,4,5,6-tetrahydropyridazin-3-yl)biphenyl-4-yl]methoxy}propanamide]",0.0105 µM,4 µg/mL,> 64 µg/mL,> 64 µg/mL,,,,
"CN(C)S(=O)(=O)c1ccc(-c2ccc(COC(C)(CO)C(=O)NO)cc2)cc1 (centres unmarked) [Example 61, 2-({4′-[(dimethylamino)sulfonyl]biphenyl-4-yl}methoxy)-N,3-dihydroxy-2-methylpropanamide]",0.0602 µM,16 µg/mL,> 64 µg/mL,> 64 µg/mL,,,,
"Cc1cc(F)ccc1-c1ccc(COC(C)(CO)C(=O)NO)cc1 (centres unmarked) [Example 63, 2-[(4′-fluoro-2′-methylbiphenyl-4-yl)methoxy]-N,3-dihydroxy-2-methylpropanamide]",0.0174 µM,4 µg/mL,> 64 µg/mL,> 64 µg/mL,,,,
"CC(CO)(OCc1ccc(-c2cccc(F)c2)cc1)C(=O)NO (centres unmarked) [Example 64, 2-[(3′-fluorobiphenyl-4-yl)methoxy]-N,3-dihydroxy-2-methylpropanamide]",0.00757 µM,4 µg/mL,> 64 µg/mL,> 64 µg/mL,,,,
"COc1cccc(-c2ccc(COC(C)(CO)C(=O)NO)cc2)c1F (centres unmarked) [Example 65, 2-[(2′-fluoro-3′-methoxybiphenyl-4-yl)methoxy]-N,3-dihydroxy-2-methylpropanamide]",0.00579 µM,1 µg/mL,64 µg/mL,> 64 µg/mL,,,,
"CC(OCc1ccc(-c2ccccc2)cc1)(C(=O)NO)C(=O)NCC1(O)CCCC1 (centres unmarked) [Example 68, 2-(biphenyl-4-ylmethoxy)-N-hydroxy-N′-[(1-hydroxycyclopentyl)methyl]-2-methylmalonamide]",0.0955 µM,4 µg/mL,> 64 µg/mL,> 64 µg/mL,,,,
"Cc1ccc(CNC(=O)C(C)(OCc2ccc(-c3ccccc3)cc2)C(=O)NO)cc1 (centres unmarked) [Example 72, 2-(biphenyl-4-ylmethoxy)-N-hydroxy-2-methyl-N′-(4-methylbenzyl)malonamide]",0.0307 µM,4 µg/mL,> 16 µg/mL,> 16 µg/mL,,,,
"Cn1cc(CCNC(=O)C(C)(OCc2ccc(-c3ccccc3)cc2)C(=O)NO)cn1 (centres unmarked) [Example 73, 2-(biphenyl-4-ylmethoxy)-N-hydroxy-2-methyl-N′-[2-(1-methyl-1H-pyrazol-4-yl)ethyl]malonamide]",0.0156 µM,1 µg/mL,> 64 µg/mL,> 64 µg/mL,,,,
"COCCNC(=O)C(C)(OCc1ccc(-c2ccccc2)cc1)C(=O)NO (centres unmarked) [Example 74, 2-(biphenyl-4-ylmethoxy)-N-hydroxy-N′-(2-methoxyethyl)-2-methylmalonamide]",0.0139 µM,1 µg/mL,64 µg/mL,> 64 µg/mL,,,,
"CC(OCc1ccc(-c2ccccc2)cc1)(C(=O)NO)C(=O)NC[C@@H]1CCCO1 (stereo partly drawn) [Example 75, 2-(biphenyl-4-ylmethoxy)-N-hydroxy-2-methyl-N′-[(2S)-tetrahydrofuran-2-ylmethyl]malonamide]",0.0126 µM,1 µg/mL,64 µg/mL,> 64 µg/mL,,,,
"CC(OCc1ccc(-c2ccccc2)cc1)(C(=O)NO)C(=O)NCCc1cscn1 (centres unmarked) [Example 76, 2-(biphenyl-4-ylmethoxy)-N-hydroxy-2-methyl-N′-[2-(1,3-thiazol-4-yl)ethyl]malonamide]",0.00848 µM,0.5 µg/mL,64 µg/mL,> 64 µg/mL,,,,
"CC(=O)NCCNC(=O)C(C)(OCc1ccc(-c2ccccc2)cc1)C(=O)NO (centres unmarked) [Example 77, N-(2-acetamidoethyl)-2-(biphenyl-4-ylmethoxy)-N′-hydroxy-2-methylmalonamide]",0.00612 µM,1 µg/mL,64 µg/mL,> 64 µg/mL,,,,
"Cc1n[nH]c(C)c1CNC(=O)C(C)(OCc1ccc(-c2ccccc2)cc1)C(=O)NO (centres unmarked) [Example 78, 2-(biphenyl-4-ylmethoxy)-N-[(3,5-dimethyl-1H-pyrazol-4-yl)methyl]-N′-hydroxy-2-methylmalonamide]",0.0055 µM,1 µg/mL,64 µg/mL,> 64 µg/mL,,,,
"Cc1nnc(CCNC(=O)C(C)(OCc2ccc(-c3ccccc3)cc2)C(=O)NO)[nH]1 (centres unmarked) [Example 79, 2-(biphenyl-4-ylmethoxy)-N-hydroxy-2-methyl-N′-[2-(5-methyl-4H-1,2,4-triazol-3-yl)ethyl]malonamide]",0.00288 µM,1 µg/mL,64 µg/mL,> 64 µg/mL,,,,
"Cc1ncsc1CCNC(=O)C(C)(OCc1ccc(-c2ccccc2)cc1)C(=O)NO (centres unmarked) [Example 80, 2-(biphenyl-4-ylmethoxy)-N-hydroxy-2-methyl-N′-[2-(4-methyl-1,3-thiazol-5-yl)ethyl]malonamide]",0.00899 µM,0.5 µg/mL,64 µg/mL,> 64 µg/mL,,,,
"CC(OCc1ccc(-c2ccccc2)cc1)(C(=O)NO)C(=O)NCCO (centres unmarked) [Example 81, 2-(biphenyl-4-ylmethoxy)-N-hydroxy-N′-(2-hydroxyethyl)-2-methylmalonamide]",0.0261 µM,1 µg/mL,64 µg/mL,> 64 µg/mL,,,,
"CCN1CC(CNC(=O)C(C)(OCc2ccc(-c3ccccc3)cc2)C(=O)NO)CC1=O (centres unmarked) [Example 82, 2-(biphenyl-4-ylmethoxy)-N-[(1-ethyl-5-oxopyrrolidin-3-yl)methyl]-N′-hydroxy-2-methylmalonamide]",0.0486 µM,4 µg/mL,> 64 µg/mL,> 64 µg/mL,,,,
"CNC(=O)C(C)(OCc1ccc(-c2ccccc2)cc1)C(=O)NO (centres unmarked) [Example 93, 2-(biphenyl-4-ylmethoxy)-N-hydroxy-N′,2-dimethylmalonamide]",,0.125 µg/mL,8 µg/mL,> 64 µg/mL,> 64 µg/mL,> 64 µg/mL,32 µg/mL,64 µg/mL
